# Read-outs that look alike come from different tables or passages of the source. Square brackets hold non-standard residues; d marks the D form. Ends that are not written are not given here. pY = N[C@@H](Cc1ccc(OP(=O)(O)O)cc1)C(=O)O
# Experiments:
# [1] = target: T1, Stat3 (Mus musculus, UniProt P42227); assay: EMSA of Stat3 DNA-binding activity in nuclear extracts (hSIE probe); assay type: biochemical; set-up: nuclear extracts (prepared from epidermal growth factor (EGF)-stimulated fibroblasts); endogenous in cells; host or cells: NIH3T3 fibroblasts stimulated with EGF; conditions: for selectivity among Stat3, Stat1 and Stat5 (in words): EMSA IC50 comparison
# Method: (§1) Nuclear extract preparation and gel shift assays. Nuclear extracts were prepared from cell lines and used for electrophoretic mobility shift assay (EMSA) as previously described (Garcia, R. et al. (1997); Yu, C. L. et al. (1995); Turkson, J. et al. (1998)). In some cases, cells were pre-treated with peptidomimetics for the indicated times (12-48 h) prior to harvesting for nuclear extract preparation. In other studies, nuclear extracts were pre-incubated with peptidomimetics for 30 min at room temperature prior to incubation with radiolabeled probe. The ^32P-radiolabeled oligonucleotide probes used are hSIE (high affinity sis-inducible element, m67 variant, 5′-[…]-3′) (SEQ ID NO. 3) that binds both Stat1 and Stat3 (Garcia, R. et al. (1997); Wagner B. J. et al. (1990)) and MGFe (mammary gland factor element from the bovine β-casein gene promoter, 5′-[…]-3′) (SEQ ID NO. 4) that binds Stat1 and Stat5 (Gouilleux, F. et al. (1995); Seidel, H. M. et al. (1995)).
# (§2) Peptidomimetics of the invention can be prepared by replacing prolyl or alanyl residue at the peptide bond that is N-terminal to the phosphotyrosine (Y*) of a peptide such as PY*L or AY*L with an organic substituent such as an optionally substituted aryl or heteroaryl group. The activities of STATs were measured in nuclear extracts (prepared from epidermal growth factor (EGF)-stimulated fibroblasts) as DNA-bound protein complexes by electrophoretic mobility shift assay (EMSA).
# From densitometric analysis of band intensities, the IC50 values (concentration of peptidomimetic at which DNA-binding activity is reduced by 50%), which are reported in Table 3, were determined.
# [2] = target: T2, Stat1:Stat3 (Mus musculus, UniProt P42227); assay: EMSA of Stat1:Stat3 heterodimer DNA-binding in nuclear extracts (hSIE probe); assay type: biochemical; conditions: nuclear extracts pre-incubated 30 min, mean and SD of at least 3 assays, read-out: IC50 values against STAT Dimers, Stat1:Stat3
# T2 construct: nuclear extracts (prepared from epidermal growth factor (EGF)-stimulated fibroblasts); endogenous in cells; host or cells: NIH3T3 fibroblasts stimulated with EGF
# Method: as §1, §2
# [3] = target: T3, Stat1:Stat1 (Mus musculus, UniProt P42225); assay: EMSA of Stat1:Stat1 DNA-binding in nuclear extracts; assay type: biochemical; conditions: nuclear extracts pre-incubated 30 min, EMSA; mean and SD of at least 3 assays; read-out: IC50 values against STAT Dimers, Stat1:Stat1
# T3 construct: nuclear extracts (prepared from epidermal growth factor (EGF)-stimulated fibroblasts); endogenous in cells; host or cells: NIH3T3 fibroblasts stimulated with EGF
# T3 sequence (P42225 1-749): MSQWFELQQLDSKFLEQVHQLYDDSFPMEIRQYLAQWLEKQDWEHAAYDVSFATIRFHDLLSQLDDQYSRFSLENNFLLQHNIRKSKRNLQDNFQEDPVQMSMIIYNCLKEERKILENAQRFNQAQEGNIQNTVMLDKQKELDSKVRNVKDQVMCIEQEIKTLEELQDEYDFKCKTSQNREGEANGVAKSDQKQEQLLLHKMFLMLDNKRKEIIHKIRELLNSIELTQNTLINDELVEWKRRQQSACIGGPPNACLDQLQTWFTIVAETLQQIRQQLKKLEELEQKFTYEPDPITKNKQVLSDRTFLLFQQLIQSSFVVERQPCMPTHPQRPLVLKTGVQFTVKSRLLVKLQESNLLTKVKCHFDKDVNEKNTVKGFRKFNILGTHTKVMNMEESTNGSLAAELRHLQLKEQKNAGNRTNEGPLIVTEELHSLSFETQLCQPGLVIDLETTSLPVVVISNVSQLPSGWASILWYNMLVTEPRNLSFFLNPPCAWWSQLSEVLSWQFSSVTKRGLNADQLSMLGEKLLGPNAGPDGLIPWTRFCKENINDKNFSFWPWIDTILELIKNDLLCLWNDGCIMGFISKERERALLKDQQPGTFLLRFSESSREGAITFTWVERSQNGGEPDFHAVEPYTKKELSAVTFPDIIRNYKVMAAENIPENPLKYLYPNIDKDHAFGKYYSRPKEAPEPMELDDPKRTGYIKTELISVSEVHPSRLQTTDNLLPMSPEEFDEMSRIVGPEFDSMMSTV
# Method: as §1
# as §2, with “(EMSA). STAT-DNA complexes detected include Stat3:Stat3 homodimers (upper band), Stat1:Stat3 heterodimers (intermediate band) and Stat1:Stat1 homodimers (lower band) (FIG. 1A) when a ^32P-labeled hSIE oligonucleotide probe is used, or Stat5:Stat5 (upper band) and Stat1:Stat1 dimers (lower band) (FIG. 1B) when ^32P-labeled MGFe is used as a probe.” for “(EMSA).”
# [4] = target: Stat5:Stat5; assay: EMSA of Stat5:Stat5 DNA-binding in nuclear extracts; assay type: biochemical, mouse; conditions: nuclear extracts pre-incubated 30 min, mean and SD of at least 3 assays, read-out: IC50 values against STAT Dimers, Stat5:Stat5
# Method: as §1
# as §2, with “(EMSA). STAT-DNA complexes detected include Stat3:Stat3 homodimers (upper band), Stat1:Stat3 heterodimers (intermediate band) and Stat1:Stat1 homodimers (lower band) (FIG. 1A) when a ^32P-labeled hSIE oligonucleotide probe is used, or Stat5:Stat5 (upper band) and Stat1:Stat1 dimers (lower band) (FIG. 1B) when ^32P-labeled MGFe is used as a probe.” for “(EMSA).”
# [5] = target: Stat3:Stat3 homodimers (activated Stat3 in nuclear extracts of EGF-stimulated NIH3T3 fibroblasts) (mouse) (UniProt P42227); assay: cell-based or functional assay
# [6] = system: Stat1:Stat1 and Stat3:Stat3 dimers; assay: Dissociation-reassociation analysis of pooled Sf-9 lysates by EMSA; assay type: biochemical; conditions: 30 min pre-treatment, 30-300 μM PY*LKTK or 3-1000 μM ISS 610, hSIE probe
# Method: Cytosolic extract preparation and luciferase assays. Cytosolic extract preparation from fibroblasts and luciferase assays were previously described (Turkson, J. et al. (1998); Turkson, J. et al. (1999)). Briefly, after two washes with PBS and equilibration for 5 min with 0.5 ml PBS-0.5 mM EDTA, cells were scraped off the dishes and the cell pellet was obtained by centrifugation (4,500×g, 2 min, 4° C.). Cells were resuspended in 0.4 ml of low-salt HEPES buffer (10 mM HEPES (pH 7.8), 10 mM KCl, 0.1 mM EGTA, 0.1 mM EDTA, 1 mM phenylmethylsulfonyl fluoride, and 1 mM dithiothreitol) for 15 min, lysed by the addition of 20 μl of 10% Nonidet P-40 (NP-40), and centrifuged (10,000×g, 30 s, 4° C.) to obtain the cytosolic supernatant, which was used for luciferase assays (Promega) measured with a luminometer. Cytosolic lysates containing activated Stat3 or Stat1 that were used for dissociation-reassociation analysis were prepared from baculovirus-infected Sf-9 insect cells as previously described (Turkson, J. et al. (2001); Zhang, Y. et al. (2000)). Briefly, cultured dishes of Sf-9 cells were washed twice with ice-cold 1×PBS and then PBS containing 1 mM sodium orthovanadate.
# [7] = target: T1, Stat3; set-up: nuclear extracts (prepared from epidermal growth factor (EGF)-stimulated fibroblasts); endogenous in cells; host or cells: NIH3T3 fibroblasts stimulated with EGF; conditions: cited from earlier work
# [8] = system: NIH3T3/v-Src; assay: Apo-BrdU labeling and flow cytometry for apoptotic cells; assay type: cell-based, mouse; conditions: NIH3T3/v-Src, 1 mM, 48 h, Apo-BrdU, flow cytometry
# Method: (§3) Cell proliferation, soft-agar growth and Apo-BrdU labeling studies. Proliferating fibroblasts and human tumor cells were counted by phase-contrast microscopy for viable cells (using tyrpan blue exclusion). Colony formation assays in six-well dishes and quantification of colonies by iodonitrotetrazolium violet have been previously described (Turkson, J. et al. (1999)). Treatment of cells with inhibitors was initiated 1 day after seeding cells by adding 75 μl of medium with or without inhibitor, and repeated every two to three days. Apoptosis was measured by Apo-BrdU labeling and following the supplier's (PharMingen; San Diego, Calif.) instructions.
# (§4) Because one of the functions of Stat3 is to protect transformed or tumor cells from apoptosis (Catlett-Falcone, R. et al. (1999b); Epling-Burnette, P. K. et al. (2001); Grandis, J. R. et al. (2000); Bowman, T. et al. (2000b); Bromberg, J. F. et al. (1999)), the ability of peptidomimetics of the invention (and PY*LKTK-MTS for comparison) (SEQ ID NO. 1) to induce apoptosis in Stat3-dependent transformed fibroblasts was evaluated. Viral Src-transformed NIH3T3/v-Src fibroblasts were treated with or without compounds for 48 h. Treated cells were then labeled with Apo-BrdU (PharMingen; San Diego, Calif.) for detection of DNA breaks.
# [9] = system: NIH3T3; assay: as above; assay type: cell-based, mouse; conditions: NIH3T3, 1 mM, 48 h, flow cytometry
# Method: as §3, §4
# [10] = nuclear extracts pre-incubated 30 min, hSIE probe, EMSA, mean and SD of at least 3 assays, read-out: IC50, disruption of Stat3 DNA-binding activity
# T1 sequence (P42227 whole entry): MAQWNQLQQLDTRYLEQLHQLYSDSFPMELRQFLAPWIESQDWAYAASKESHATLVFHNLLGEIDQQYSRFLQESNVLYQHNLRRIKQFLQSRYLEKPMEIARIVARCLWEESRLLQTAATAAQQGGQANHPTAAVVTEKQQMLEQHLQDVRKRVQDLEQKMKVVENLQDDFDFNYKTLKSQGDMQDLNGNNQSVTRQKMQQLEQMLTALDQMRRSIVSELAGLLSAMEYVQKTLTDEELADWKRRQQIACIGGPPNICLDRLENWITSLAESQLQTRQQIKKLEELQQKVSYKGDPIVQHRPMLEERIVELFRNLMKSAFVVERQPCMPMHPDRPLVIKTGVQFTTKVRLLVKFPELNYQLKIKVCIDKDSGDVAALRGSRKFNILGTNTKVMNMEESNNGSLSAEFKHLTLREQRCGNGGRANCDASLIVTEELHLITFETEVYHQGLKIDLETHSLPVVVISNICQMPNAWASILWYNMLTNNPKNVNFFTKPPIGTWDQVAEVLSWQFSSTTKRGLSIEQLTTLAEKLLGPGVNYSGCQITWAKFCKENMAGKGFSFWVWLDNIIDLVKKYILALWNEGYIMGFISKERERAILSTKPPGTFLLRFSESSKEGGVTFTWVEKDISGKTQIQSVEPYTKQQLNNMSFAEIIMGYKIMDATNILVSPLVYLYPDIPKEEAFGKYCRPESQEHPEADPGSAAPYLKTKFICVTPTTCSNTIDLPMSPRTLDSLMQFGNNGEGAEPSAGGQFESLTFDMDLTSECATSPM
# T2 sequence (P42227 whole entry): as above
molecule,measurement,setting,value
CC(C)CC(NC(=O)C(Cc1ccc(OP(=O)(O)O)cc1)NC(=O)c1ccc(-c2ccccc2)cc1)C(=O)O (stereo not shown) [ISS 355],IC50,[1],> 1000 µM
CC(C)CC(NC(=O)C(Cc1ccc(OP(=O)(O)O)cc1)NC(=O)c1ccccc1-c1ccccc1)C(=O)O (stereo not shown) [ISS 360],IC50,[1],420 µM
CC(C)CC(NC(=O)C(Cc1ccc(OP(=O)(O)O)cc1)NC(=O)c1cnc2ccccc2c1)C(=O)O (stereo not shown) [ISS 363],IC50,[1],643 µM
CC(C)CC(NC(=O)C(Cc1ccc(OP(=O)(O)O)cc1)NC(=O)c1cc([N+](=O)[O-])ccc1F)C(=O)O (stereo not shown) [ISS 375],IC50,[1],> 1000 µM
Cc1cnc(C(=O)NC(Cc2ccc(OP(=O)(O)O)cc2)C(=O)NC(CC(C)C)C(=O)O)cn1 (stereo not shown) [ISS 493],IC50,[2],230 µM
same,IC50,[3],273 µM
same,IC50,[4],300 µM
same,"selectivity among Stat3, Stat1 and Stat5 (in words)",[1],preferential suppression of Stat3 activity over those of Stat1 or Stat5
same,IC50,[1]; [10],38 µM
COc1cccc(OC)c1C(=O)NC(Cc1ccc(OP(=O)(O)O)cc1)C(=O)NC(CC(C)C)C(=O)O (stereo not shown) [ISS 637],IC50,[2],195 µM
same,IC50,[3],255 µM
same,IC50,[4],695 µM
same,"selectivity among Stat3, Stat1 and Stat5 (in words)",[1],preferential suppression of Stat3 activity over those of Stat1 or Stat5
same,increase in potency in inhibiting Stat3 DNA-binding activity compared to tripeptides PY*L or AY*L,"[1]; in vitro, EMSA",5 fold
same,IC50,[1]; [10],55 ± 35 µM
same,effect on Stat3 DNA-binding activity in vitro (in words),"[1]; nuclear extracts, EMSA",potent disrupters of active Stat3
Alanylphosphotyrosylleucine (peptide),"IC50, concentration at which Stat3 DNA-binding (EMSA, hSIE probe) is reduced by 50%",[5],217 µM
PY*LKTK (P[pY]LKTK) [reference compound],effect on STAT dimers in mixed Stat1:Stat1 and Stat3:Stat3 lysates,[6],appearance of an additional intermediate band representing Stat1:Stat3 heterodimers
same,"disruption of Stat3:Stat3 dimer formation and Stat3 DNA-binding activity, as reported earlier",[7],disrupt Stat3:Stat3 dimer formation
PYLKTK-AAVLLPVLLAAP (PYLKTKAAVLLPVLLAAP; membrane translocating sequence; murine) [PYLKTK-MTS],percent of apoptotic cells,[8],0.4%
same,percent of apoptotic cells,[9],1.2%
Prolylphosphotyrosylleucine (peptide),"IC50, concentration at which Stat3 DNA-binding (EMSA, hSIE probe) is reduced by 50%",[5],182 µM
